Test results: the supplement of paper PMC4932681

Assays:
T-47D Tam1 [1] = assay: relative IC50 (midpoint of fitted logistic curve, plateau may be below 50% inhibition; CellTiter-Glo viability); higher = less potent; details: 4-OH-tamoxifen in medium 1 µM; 72 h
Procedure: (§1)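 FIMM FO2B library drugs were plated at 5 concentrations spanning a 10,000-fold range in 384-well plates. Cells were incubated for 72 h at 37 °C and viability was read by CellTiter-Glo, normalised to DMSO (0% inhibition) and 100 µM benzethonium chloride (100% inhibition). IC50 values come from logistic dose-response fits (Breeze pipeline). Tamoxifen-resistant lines and the 'in 1µM tamoxifen' parental arms were tested in medium with 1 µM 4-OH-tamoxifen.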

T-47D [2] = assay: as above; details: 72 h
Procedure: as §1

ZR-75-1 [3] = assay: as above; details: 72 h
Procedure: as §1

BT-474 [4] = assay: as above; details: 72 h
Procedure: as §1

MCF-7 Tam1 [5] = assay: as above; details: 4-OH-tamoxifen in medium 1 µM; 72 h
Procedure: as §1

BT-474 Tam2 [6] = assay: as above; details: 4-OH-tamoxifen in medium 1 µM; 72 h
Procedure: as §1

ZR-75-1 Tam2 [7] = assay: as above; details: 4-OH-tamoxifen in medium 1 µM; 72 h
Procedure: as §1

MCF-7 [8] = assay: as above; details: 72 h
Procedure: as §1

T-47D Tam1 [9] = assay: drug sensitivity score (DSS) (DSS (dimensionless)); higher = more sensitive; extreme values may be limits of the assay; details: 4-OH-tamoxifen in medium 1 µM; 72 h
Procedure: (§2)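 FIMM FO2B library drugs were tested at 5 concentrations (10,000-fold range) for 72 h, with CellTiter-Glo viability normalised to DMSO and benzethonium chloride controls. The Drug Sensitivity Score (DSS) is computed from the fitted logistic dose-response curve (area-based; 0 = inactive). Resistant lines and the 'in 1µM tamoxifen' arms were tested in 1 µM 4-OH-tamoxifen.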

T-47D Tam2 = assay: as above; details: 4-OH-tamoxifen in medium 1 µM; 72 h
Procedure: as §2

T-47D [10] = assay: as above; details: 72 h
Procedure: as §2

ZR-75-1 [11] = assay: as above; details: 72 h
Procedure: as §2

BT-474 [12] = assay: as above; details: 72 h
Procedure: as §2

MCF-7 Tam1 [13] = assay: as above; details: 4-OH-tamoxifen in medium 1 µM; 72 h
Procedure: as §2

BT-474 Tam2 [14] = assay: as above; details: 4-OH-tamoxifen in medium 1 µM; 72 h
Procedure: as §2

ZR-75-1 Tam2 [15] = assay: as above; details: 4-OH-tamoxifen in medium 1 µM; 72 h
Procedure: as §2

BT-474 Tam1 [16] = assay: as above; details: 4-OH-tamoxifen in medium 1 µM; 72 h
Procedure: as §2

MCF-7 [17] = assay: as above; details: 72 h
Procedure: as §2

ZR-75-1 Tam1 [18] = assay: as above; details: 4-OH-tamoxifen in medium 1 µM; 72 h
Procedure: as §2

BT-474 Tam1 [19] = assay: relative IC50 (midpoint of fitted logistic curve, plateau may be below 50% inhibition; CellTiter-Glo viability); higher = less potent; details: 4-OH-tamoxifen in medium 1 µM; 72 h
Procedure: as §1

ZR-75-1 Tam1 [20] = assay: as above; details: 4-OH-tamoxifen in medium 1 µM; 72 h
Procedure: as §1

SMILES	relative IC50 (T-47D Tam1 [1]) [nM]	relative IC50 (T-47D [2]; 4-OH-tamoxifen in medium 0 µM) [nM]	relative IC50 (T-47D [2]; 4-OH-tamoxifen in medium 1 µM) [nM]	relative IC50 (ZR-75-1 [3]; 4-OH-tamoxifen in medium 0 µM) [nM]	relative IC50 (ZR-75-1 [3]; 4-OH-tamoxifen in medium 1 µM) [nM]	relative IC50 (BT-474 [4]; 4-OH-tamoxifen in medium 0 µM) [nM]	relative IC50 (MCF-7 Tam1 [5]) [nM]	relative IC50 (BT-474 Tam2 [6]) [nM]	relative IC50 (ZR-75-1 Tam2 [7]) [nM]	relative IC50 (MCF-7 [8]; 4-OH-tamoxifen in medium 0 µM) [nM]	drug sensitivity score (T-47D Tam1 [9])	drug sensitivity score (T-47D Tam2)	drug sensitivity score (T-47D [10]; 4-OH-tamoxifen in medium 0 µM)	drug sensitivity score (T-47D [10]; 4-OH-tamoxifen in medium 1 µM)	drug sensitivity score (ZR-75-1 [11]; 4-OH-tamoxifen in medium 0 µM)	drug sensitivity score (ZR-75-1 [11]; 4-OH-tamoxifen in medium 1 µM)	drug sensitivity score (BT-474 [12]; 4-OH-tamoxifen in medium 0 µM)	drug sensitivity score (BT-474 [12]; 4-OH-tamoxifen in medium 1 µM)	drug sensitivity score (MCF-7 Tam1 [13])	drug sensitivity score (BT-474 Tam2 [14])	drug sensitivity score (ZR-75-1 Tam2 [15])	drug sensitivity score (BT-474 Tam1 [16])	drug sensitivity score (MCF-7 [17]; 4-OH-tamoxifen in medium 0 µM)	drug sensitivity score (MCF-7 [17]; 4-OH-tamoxifen in medium 1 µM)	drug sensitivity score (ZR-75-1 Tam1 [18])	relative IC50 (BT-474 [4]; 4-OH-tamoxifen in medium 1 µM) [nM]	relative IC50 (BT-474 Tam1 [19]) [nM]	relative IC50 (ZR-75-1 Tam1 [20]) [nM]	relative IC50 (MCF-7 [8]; 4-OH-tamoxifen in medium 1 µM) [nM]
COc1cc2nccc(Oc3ccc(NC(=O)C4(C(=O)Nc5ccc(F)cc5)CC4)cc3)c2cc1OC [Cabozantinib (XL184)]	> 1000	> 1000	> 1000	> 1000	> 1000	> 1000	> 1000	> 1000	> 1000	> 1000	0	0.0065	0	0	0	0	0	0.138	0	0	0	0.113	0	0.282	0.0383	–	–	–	–
Nc1ccn([C@@H]2O[C@H](CO)[C@@H](O)C2(F)F)c(=O)n1 [Gemcitabine]	> 1000	60.4	> 1000	–	–	> 1000	> 1000	> 1000	–	–	0	0.815	4.36	0	6.28	0.865	0	0	0	0	0.493	0	5.69	0.509	0	> 1000	> 1000	> 1000	–
NC(=O)c1cccc2cn(-c3ccc([C@@H]4CCCNC4)cc3)nc12 [MK-4827]	> 10000	–	–	–	> 10000	> 10000	> 10000	–	> 10000	–	0	0.764	0.34	1.04	0.0039	0	0	0	0	0.615	0	2.21	0.385	1.11	0	> 10000	3060	> 10000	–
CC1(C)CCC(c2ccc(Cl)cc2)=C(CN2CCN(c3ccc(C(=O)NS(=O)(=O)c4ccc(N[C@H](CCN5CCOCC5)CSc5ccccc5)c(S(=O)(=O)C(F)(F)F)c4)cc3)CC2)C1 [Navitoclax (ABT-263)]	326	> 10000	> 10000	> 10000	> 10000	–	> 10000	723	> 10000	–	14.1	1.65	0	0	0	0	0	4.26	0	3.9	0	2.79	1.6	0.949	0	1610	1150	> 10000	–
CO[C@H]1C[C@@H]2CC[C@@H](C)[C@@](O)(O2)C(=O)C(=O)N2CCCC[C@H]2C(=O)O[C@H]([C@H](C)C[C@@H]2CC[C@@H](O)[C@H](OC)C2)CC(=O)[C@H](C)/C=C(\C)[C@@H](O)[C@@H](OC)C(=O)[C@H](C)C[C@H](C)/C=C/C=C/C=C/1C [Sirolimus (Rapamycin)]	5.24	1.07	–	1.84	2.35	–	> 1000	–	2	4.79	8.59	3.53	10.6	0.392	12.7	9.39	5.15	1.96	0	1.85	12.4	0	12.7	11.1	8.75	–	> 1000	4.48	4.86
C[C@@H]1C[C@H]2[C@@H]3CCC4=CC(=O)C=C[C@]4(C)[C@@]3(F)[C@@H](O)C[C@]2(C)[C@@]1(O)C(=O)CO [Dexamethasone  (Decadron)]	> 10000	> 10000	> 10000	> 10000	> 10000	> 10000	> 10000	> 10000	–	> 10000	0	0	0	0	0	0	0	0	0	0	0.209	0	0	1.88	0	> 10000	–	> 10000	–
Cn1c(=O)n(-c2ccc(C(C)(C)C#N)cc2)c2c3cc(-c4cnc5ccccc5c4)ccc3ncc21 [Dactolisib (NVP-BEZ235)]	7.44	27.8	117	9.3	9.17	–	52.7	–	13.9	6.68	13.4	4.46	10.4	7.65	12.9	10.4	6.54	5.55	3.91	4.69	12.6	4.98	18.3	11.4	12.4	60.9	86.3	7.16	8.94
N[C@@H](CSC(c1ccccc1)(c1ccccc1)c1ccccc1)C(=O)O [S-trityl-L-cysteine]	> 40000	–	> 40000	–	> 40000	40000	> 40000	> 40000	–	> 40000	0	0.0046	0.0068	0	1.65	0	0	1.41	0	0	0.627	1.68	0	1.69	0	–	–	> 40000	–
